Key:
mean arterial pressure = test: in vivo blood pressure lowering in low sodium diet, furosemide-treated rats; details: oral or parenteral dosing; sodium-depleted Sprague-Dawley rats
Experimental: The ability of the compounds of the invention to lower blood pressure in mammals was determined by the following in vivo protocol. Sprague-Dawley rats are placed on a low sodium diet (Purina Labs, 0.07% sodium) for 15 days. On days 11 and 13 of this period, the rats are given furosemide (Lasix, 8 mg/kg, i.m.). On day 13, the animals are anesthetized with a pentobarbital-chloral hydrate mixture (30 mg/kg pentobarbital sodium and 10 mg/kg chloral hydrate, i.p.) and the carotid artery and jugular vein are cannulated using PE50 tubing (Clay-Adams). After a 24 hour recovery period, the animals are injected on day 14 with Lasix (10 mg/kg, i.m.) and are placed in plexiglass chambers for blood pressure recording. […] When possible, blood pressure is also checked after 24 hours. According to this protocol, the compound of the invention is effective in lowering mean arterial pressure at oral dosages from about 0.1 mg/kg to about 30 mg/kg, and at parenteral dosages from about 0.01 mg/kg to about 10 mg/kg, with a duration of action of greater than 24 hours.

rat liver AII receptors = biological target: T1, rat liver AII receptors (Rattus norvegicus, UniProt P25095); test: in vitro AII rat liver binding assay (displacement of 125I SARILE AII); details: displacement of 125I SARILE AII from rat liver membranes; assay run with or without BSA; read-out: IC50 (concentration of compound which inhibits binding by 50%)
T1 construct: from tissue; host or cells: liver membranes (100,000 g pellet) of male Sprague-Dawley rats
T1 sequence (P25095 1-359): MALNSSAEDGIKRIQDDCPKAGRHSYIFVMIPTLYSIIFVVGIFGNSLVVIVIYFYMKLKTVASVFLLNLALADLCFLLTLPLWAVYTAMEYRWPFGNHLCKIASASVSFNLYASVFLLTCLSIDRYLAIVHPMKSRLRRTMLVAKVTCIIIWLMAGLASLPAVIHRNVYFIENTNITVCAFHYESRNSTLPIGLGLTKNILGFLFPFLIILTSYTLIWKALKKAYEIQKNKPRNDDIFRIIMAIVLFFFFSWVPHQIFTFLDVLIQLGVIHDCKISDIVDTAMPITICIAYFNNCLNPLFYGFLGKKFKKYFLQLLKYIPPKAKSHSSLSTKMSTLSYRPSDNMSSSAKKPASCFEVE
Experimental: The compound of the present invention is readily adapted to clinical use as a modulator of AII action at the AII receptor. The ability of the compound to modulate AII action was determined by an in vitro AII rat liver binding assay which measures its ability to displace ^125 I sarcosine-1, isoleucine-8, angiotensin II (SARILE AII, obtained from New England Nuclear) from rat liver AII receptors. For this assay, the following materials are used.
Homogenation buffer (10 mM Tris, 0.2M sucrose, 1.0 mM EDTA), prepared using 1.21 g Tris base, […] sucrose and 336 mg EDTA in 1000 ml water, adjusted to pH 7.4 using HCl.
Buffer A (50 mM Tris, 5 mM MgCl2), prepared using 6.05 g Tris base and 1.02 g MgCl2.6H2 O in 1000 ml water.
Assay buffer, prepared using 200 ml Buffer A and 0.5 g BSA. […]
The compound being tested is made up to an initial concentration of 2 mM in 100% DMSO. […] The filters are cut, placed in test tubes and counted on a Gamma Counter. The mean for all triplicate points are calculated and total specific binding is calculated by subtracting nonspecific counts from total counts. Binding in the presence of compound (COUNTS) is calculated by subtracting nonspecific counts from counts in the presence of compound. Percent binding of SARILE All in the presence of compound is calculated by dividing COUNTS by total specific counts. […]

Compound: CCc1nc2c(C)cc(C)nc2n1Cc1ccc(C2(C(=O)O)CC=CC2)cc1 [Example 1, 1-[4'-(2"-ethyl-5",7"-dimethylimidazo[4,5-b]pyridin-3-yl)methylphenyl]cyclopent-3-ene-1-carboxylic acid]
- duration of action (lowering of mean arterial pressure) (mean arterial pressure): greater than 24 hours
- IC50 (rat liver AII receptors): < 100 nM

From patent publication US5300668A, “Certain esters of 1-(4-X-methylphenyl)cyclopent-3-ene-1-carboxylic acid, wherein X is a trialkylsilyloxy, bromo or hydroxy group, as intermediates” (Pfizer Inc., priority 1993, dated 1994)
